# From US20050255458A1, “Drug discovery assays based on the biology of chronic disease” (priority 2002, published 2005)
# Where two headings read alike, the source gives them in different places.
# Key:
# [1] = test system: U937; conditions: vs controls, p<0.05; cited from earlier work
# [2] = test system: HSV-1; conditions: cited from earlier work
# [3] = test system: tissue factor (TF) gene; conditions: cited from earlier work
# [4] = test system: TF promoter; conditions: cited from earlier work
# [5] = test system: HIV-1; assay: HIV-1 DNA load change over 80 weeks (Bruisten); type: in vivo, human; conditions: monotherapy; ddC calculated as ddC+AZT minus AZT
# [6] = test system: HIV-1; assay: HIV-1 DNA regression on years since seroconversion (Chun 1997); conditions: therapy including the drug; HIV-1 DNA per 10^6 resting CD4+ T-cells
# [7] = test system: HIV-1; assay: Total HIV-1 LTR DNA by PCR (Pauza 1994); conditions: scale of 1 to 5 (1 is lowest)
# [8] = test system: HIV-1; set-up: key to Effect on HIV DNA: ↓↓: Two arrows indicates larger change; conditions: cited from earlier work
# [9] = test system: sebocytes; conditions: 10^−6 M, cited from earlier work
# [10] = test system: ERK; conditions: cited from earlier work
# [11] = test system: hair follicles (onset of anagen); conditions: topical 10 nmol twice weekly, female CD-1 mice; cited from earlier work
# [12] = test system: Elk-1; conditions: Peterziel 1999; cited from earlier work
# [13] = test system: AR gene; conditions: cited from earlier work
# [14] = in vivo; cited from earlier work
# [15] = test system: ML-1 human myeloblastic leukemic cells; conditions: cited from earlier work
# [16] = test system: AU565 breast carcinoma cells; conditions: cited from earlier work
# [17] = test system: endogenous AR gene; conditions: 10^−8 M, cited from earlier work
# [18] = test system: GABP; conditions: Ojuka 2003; cited from earlier work
# [19] = combination treatment including the drug; cited from earlier work
# [20] = test system: CD18; conditions: 10^−8 M for 10 min, vs unstimulated cells; cited from earlier work
# [21] = cited from earlier work
# [22] = test system: ERK; conditions: cited from earlier work; remark: listed apart in the source
# [23] = test system: abdominal subcutaneous adipocytes; conditions: obese vs non-obese (Hellstrom 2000); cited from earlier work
# [24] = test system: Lp(a); conditions: 2 g administered daily; cited from earlier work
# [25] = test system: MDAY-D2 tumor; conditions: 500 μg daily s.c., cited from earlier work
# [26] = drinking water, 4 months, vs untreated obese (fa/fa); cited from earlier work
# [27] = test system: rhesus monkeys; conditions: atherogenic diet; cited from earlier work
# [28] = test system: rabbits; conditions: atherogenic diet; cited from earlier work
# [29] = test system: U251.3 glioma cells; conditions: soluble, 100 μg/ml; fibronectin 10 μg/ml; 24 and 48 hours; cited from earlier work
compound,measurement,setting,value
CC(C)CCC[C@@H](C)[C@H]1CC[C@H]2[C@@H]3C(=O)C=C4C[C@@H](O)CC[C@]4(C)[C@H]3CC[C@]12C [7-ketocholesterol],GSH content,[1],lower GSH content
"Nc1nc2c(ncn2COCCO)c(=O)[nH]1 [ACV, aciclovir]",copy number of latent HSV-1 genomes,"[2]; 7 days from first day post infection, day 44, relative to IgG",decreased the copy number of latent HSV-1 genomes
"CC1=C(/C=C/C(C)=C/C=C/C(C)=C/C(=O)O)C(C)(C)CCC1 [ATRA, all-trans retinoic acid]",TF mRNA,"[3]; 10^−5 mol/L, 30 minutes",decrease in TF mRNA
same,"binding of c-Fos/c-Jun, c-Rel/p65 and Sp1 to their sites","[3]; 10^−5 mol/L, 30 minutes",no change in binding
same,rate of TF transcription (run-on),"[3]; LPS 10 μg/ml 1 hour, ATRA 10^−5 mol/L 30 minutes before LPS",decreased TF transcription
same,LPS induced increase in LUC transcription,[4]; 30-minute ATRA before 5-hour LPS,no decrease
same,LUC activity,"[4]; ATRA 10^−5 mol/L, 30 minutes, vs untreated",no decrease in LUC activity
"Cc1cn([C@H]2C[C@H](N=[N+]=[N-])[C@@H](CO)O2)c(=O)[nH]c1=O [AZT, Zidovudine]",mean log change from baseline in viral DNA over all time points,[5],−0.05
same,average difference between expected and observed viral DNA copies,[6],+317 copies
same,average ranking of viral DNA load,[7],2.74
same,change in viral DNA,[8]; week 80,increase
"C[C@]12CCC(=O)C[C@@H]1CC[C@@H]1[C@@H]2CC[C@]2(C)[C@@H](O)CC[C@@H]12 [DHT, Dihydrotestosterone]",decrease in DNA synthesis (^3H-thymidine uptake),[9]; vs untreated,40%
same,sebocyte differentiation (lipid accumulation),[9]; statistically insignificant,small increase
same,ERK phosphorylation,[10]; LNCaP or PC-3 cells (Guo 2000),no increase in ERK phosphorylation
same,Effect on [ERK^phos],[10]; LNCaP,↑[ERK^phos]
same,Effect on [ERK^phos],[10]; primary genital skin fibroblasts,↑[ERK^phos]
same,Effect on [ERK^phos],[10]; primary prostatic stormal cells,↑[ERK^phos]
same,delay in hair regrowth,[11],3-4 week
same,Elk-1 transcription activity,[12],increase in Elk-1 transcription activity
same,AR mRNA half life,[13]; LNCaP,Increased mRNA half life
same,AR transcription in run-on assays,[13]; LNCaP,Decreased transcription
same,Effect on [mRNAAR],[13]; LNCaP,↓[mRNAAR]
same,AR mRNA half life,[13]; MDA453,Decreased mRNA half life
same,AR transcription in run-on assays,[13]; MDA453,No change in run-on
same,Effect on [mRNAAR],[13]; MDA453,↓[mRNAAR]
"CC(=O)OCC(CCn1cnc2cnc(N)nc21)COC(C)=O [FCV, famciclovir]",establishment of viral latency,[2]; 9-10 days treatment early in infection,effective in limiting the establishment of viral latency
CNCCC(Oc1ccc(C(F)(F)F)cc1)c1ccccc1 (centres unmarked) [Fluoxetine],effect on body weight,[14],^IIFluoxetine produces a transient weight loss leading to gain in body weight in the long term.
COc1cccc(-c2cc(=O)c3ccccc3o2)c1N [PD98059],ML-1 proliferation with TPA,[15]; 10 μM PD98059 with 0.3 ng/ml TPA,continued to proliferate
same,decrease in TPA-stimulated ERK2 activity,[15]; 1 h,2 fold
same,decrease in TPA-stimulated ERK2 activity,[15]; 3 h,10 fold
same,effect on HRGβ1-induced cell growth arrest,[16]; 0-10 μM PD98059,dose-dependently reversed
same,cell differentiation,"[16]; HRGβ1 alone, PD98059 as pretreatment",dose-dependently inhibited
"C[C@]1(O)CC[C@H]2[C@@H]3CCC4=CC(=O)CCC4=C3C=C[C@@]21C [R1881, methyltrienolone]",Effect on [ERK^phos],[10]; PMC42 human breast cancer cells,↑[ERK^phos]
same,transcription of endogenous AR gene,[17]; 8 hours,85 % of control
same,transcription of endogenous AR gene,[17]; 24 hours,73 % of control
same,Effect on [mRNAAR],[13]; LNCaP,↓[mRNAAR]
CCCCNC(=O)NS(=O)(=O)c1ccc(C)cc1 [Tolbutamide],atherosclerosis,[14],^IIITolbutamide induced atherosclerosis.
Cn1c(=O)c2c(ncn2C)n(C)c1=O [caffeine],GABP binding to the N-box,[18],increase of GABP binding
O=C1CN(/N=C/c2ccc(-c3ccc([N+](=O)[O-])cc3)o2)C(O)=N1 [dantrolene],GABP binding to the N-box,[18],prevented the effect
"Nc1ccn([C@H]2CC[C@@H](CO)O2)c(=O)n1 [ddC, zalcitabine]",association with fat redistribution (FR),[19],significantly associated with the absence of FR
same,mean log change from baseline in viral DNA over all time points,[5],−0.1546
same,average ranking of viral DNA load,[7],2.71
"OC[C@@H]1CC[C@H](n2cnc3c(O)ncnc32)O1 [ddI, 2′,3′-dideoxyinosine]",association with fat redistribution (FR),[19],significantly associated with absence of FR
same,average difference between expected and observed viral DNA copies,[6],−828 copies
same,average ranking of viral DNA load,[7],2.25
same,Effect on HIV DNA,[8]; in vivo,↓↓
"CSCC[C@H](NC=O)C(=O)N[C@@H](CC(C)C)C(=O)N[C@@H](Cc1ccccc1)C(=O)O [fMLP, N-formylmethionyl-leucyl-phenylalanine]",increase in CD18 surface membrane concentration,[20],4 fold
"Nc1nc(O)c2ncn(COC(CO)CO)c2n1 [ganciclovir, Ganciclovir]",actuarial incidence of TxCAD,"[21]; 28 days prophylaxis, follow-up 4.7±1.3 years",43±8%
same,patients who developed TxCAD,"[21]; CMV seronegative recipients, 14 patients",28%
CC(C)NCC(O)c1ccc(O)c(O)c1 (centres unmarked) [isoprenaline],ERK activation,[22]; CHO/K1 cells expressing the human β3AR,activated ERK
same,ERK activation,[22]; adipocytes,activated ERK
same,decrease in maximum induced glycerol release,[23],50%
O=C(O)c1cccnc1 [niacin],decrease of Lp(a),[24],27%
[Na+].[Na+].[Na+].[O]=[V]([O-])([O-])[O-] [sodium orthovanadate],tumor weights,"[25]; day 14, 11 mice with tumors",0.08 to 0.47 g
same,decrease in tumor growth,[25],more than 85%
same,decrease in body weight,[26],43%
CN1CCN(CCCN2c3ccccc3Sc3ccc(C(F)(F)F)cc32)CC1 [trifluoperazine],rate of lesion formation,[27],decreased the rate of lesion formation
same,rate of lesion formation,[28],decreased the rate of lesion formation
TNC: a large ECM glycoprotein secreted by a variety of cells,migration distance,[29],significantly increased migration distance
